Consider 18 compounds from patent US20150196033A1, “PESTICIDAL COMPOSITIONS AND PROCESSES RELATED THERETO” (priority 2012, published 2015).

Common to all, as to assay type: in vivo
The test system of series [1] is Beet Armyworm (BAW) (Spodoptera exigua). Briefly: Bioassay on Beet Armyworm (BAW), 128-well diet tray assay. To be noted: 50 μg/cm2 on artificial diet, second instar larvae, five to seven days; for mortality at 50 µg/cm2: Spodoptera exigua, 168 h, read-out: Rating BAW (% Control (or Mortality)). Summed up:
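Spodoptera exigua larvae on diet trays held 5–7 days at 25 °C, 14:10 light-dark. Percent mortality scored per well and averaged over eight wells.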

In series [2] the test system is Corn Earworm (CEW) (Helicoverpa zea). Briefly: Bioassay on Corn Earworm (CEW), 128-well diet tray assay. As to conditions: second instar larvae, five to seven days; for mortality at 50 µg/cm2 / mortality at 0.5 µg/cm2: Helicoverpa zea, 168 h; for mortality at 50 µg/cm2: read-out: Rating CEW (% Control (or Mortality)); for mortality at 0.5 µg/cm2: 0.5 μg/cm2 on artificial diet, read-out: Rating CEW (% Control (or Mortality)), *Tested at 0.5 μg/cm2. The method in brief: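 Helicoverpa zea larvae in 128-well diet trays, held at 25 °C, 14:10 light-dark for five to seven days. Percent mortality scored per well and averaged over eight wells.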

For series [3], the system named is Green Peach Aphid (GPA) (Myzus persicae). Briefly: Bioassay on Green Peach Aphid (GPA), foliar spray on cabbage seedlings. To be noted: 200 ppm foliar spray on cabbage seedlings, graded after three days, Abbott corrected % control; for mortality at 200 ppm: Myzus persicae, 72 h, read-out: Rating GPA (% Control (or Mortality)). The protocol: Certain molecules disclosed in this document were tested against GPA using procedures described in the following example. In the reporting of the results, the “GPA Rating Table” was used (See Table Section).
Cabbage seedlings grown in 3-inch pots, with 2-3 small (3-5 cm) true leaves, were used as test substrate. The seedlings were infested with 20-50 GPA (wingless adult and nymph stages) one day prior to chemical application. Four pots with individual seedlings were used for each treatment. Test compounds (2 mg) were dissolved in 2 mL of acetone/MeOH (1:1) solvent, forming stock solutions of 1000 ppm test compound. The stock solutions were diluted 5× with 0.025% Tween 20 in H2O to obtain the solution at 200 ppm test compound. A hand-held aspirator-type sprayer was used for spraying a solution to both sides of […] leaves until runoff. Reference plants (solvent check) were sprayed with the diluent only containing 20% by volume of acetone/MeOH (1:1) solvent. Treated plants were held in a holding room for three days at approximately 25° C. and ambient relative humidity (RH) prior to grading. Evaluation was conducted by counting the number of live aphids per plant under a microscope. Percent Control was measured by using Abbott's correction formula (W.S. Abbott, “A Method of Computing the Effectiveness of an Insecticide” J. Econ. Entomol. 18 (1925), pp. 265-267) as follows.
Corrected % Control=100*(X−Y)/X • where • X=No. of live aphids on solvent check plants and • Y=No. of live aphids on treated plants

The subject of series [4] is Yellow Fever Mosquito (YFM) (Aedes aegypti). As to conditions: about 1 day-old larvae, scored on mortality after 3 days. As to the method: Certain molecules disclosed in this document were tested against YFM using procedures described in the following paragraph. In the reporting of the results, the “YFM Rating Table” was used (See Table Section).
Master plates containing 400 μg of a molecule dissolved in 100 μL of dimethyl sulfoxide (DMSO) (equivalent to a 4000 ppm solution) are used. A master plate of assembled molecules contains 15 μL per well. To this plate, 135 μL of a 90:10 water:acetone mixture is added to each well. A robot (Biomek® NXP Laboratory Automation Workstation) is programmed to dispense 15 μL aspirations from the master plate into an empty 96-well shallow plate (“daughter” plate). There are 6 reps (“daughter” plates) created per master. The created daughter plates are then immediately infested with YFM larvae.
The day before plates are to be treated, mosquito eggs are placed in Millipore water containing liver powder to begin hatching (4 g. into 400 ml). After the daughter plates are created using the robot, they are infested with 220 μL of the liver powder/larval mosquito mixture (about 1 day-old larvae). After plates are infested with mosquito larvae, a non-evaporative lid is used to cover the plate to reduce drying. Plates are held at room temperature for 3 days prior to grading. After 3 days, each well is observed and scored based on mortality.

As for `Cc1cccc(C)c1N/C(=N/C(=O)Nc1ccc(-c2ncn(-c3ccc(C(F)(F)F)cc3)n2)cc1)SCOC(=O)C(C)C` [Molecule A3, (E)-(N′-(2,6-Dimethylphenyl)-N-(4-(1-(4-(trifluoromethyl)phenyl)-1H-1,2,4-triazol-3-yl)phenylcarbamoyl)carbamimidoylthio) methyl isobutyrate], the mortality at 50 µg/cm2 in series [1] and in series [2] (50 μg/cm2 on artificial diet) was 50 to 100% in each case. Further, in series [3], the mortality at 200 ppm is 0%. In series [4], the “Rating YFM (% Control (or Mortality))” value is “A (80-100)”.
Turning to `COc1cc(C)c(N/C(=N/C(=O)Nc2ccc(-c3ncn(-c4ccc(OC(F)(F)F)cc4)n3)cc2)SCOC(=O)C(C)C)c(C)c1` [Molecule A7, (E)-(N′-(2,6-Dimethyl-4-methoxyphenyl)-N-(4-(1-(4-(trifluoromethyoxy)phenyl)-1H-1,2,4-triazol-3-yl)phenylcarbamoyl)carbamimidoylthio)methyl isobutyrate], the mortality at 50 µg/cm2 in series [1] and in series [2] (50 μg/cm2 on artificial diet) was 50 to 100% throughout. In series [3], the mortality at 200 ppm lay within 0 to 80%.
Regarding `Cc1cccc(C)c1N/C(S)=N/C(=O)Nc1ccc(-c2ncn(-c3ccc(OC(F)(F)F)cc3)n2)cc1` [Molecule A11], the mortality at 50 µg/cm2 in series [1] and in series [2] (50 μg/cm2 on artificial diet) was 50 to 100% throughout. In addition, the mortality at 200 ppm in series [3] lay within 0 to 80%.
For `Cc1cccc(C)c1N/C(S)=N/C(=O)Nc1ccc(-c2ncn(-c3ccc(C(F)(F)F)cc3)n2)cc1` [Molecule A12], the mortality at 50 µg/cm2 in series [1] and in series [2] (50 μg/cm2 on artificial diet) was 50 to 100% each time. In addition, the mortality at 200 ppm in series [3] was determined as 0%.
On to `CCC(C)c1ccccc1N1C(=O)CS/C1=N\C(=O)Nc1ccc(-c2ncn(-c3ccc(OC(F)(F)F)cc3)n2)cc1` (stereo not shown) [Molecule A18, (Z)-1-(3-(2-(sec-butyl)phenyl)-4-oxothiazolidin-2-ylidene)-3-(4-(1-(4-(trifluoromethoxy)phenyl)-1H-1,2,4-triazol-3-yl)phenyl)urea], for which the mortality at 50 µg/cm2 in series [1] and in series [2] (50 μg/cm2 on artificial diet) was 50 to 100% in each case. For the same compound, the “Rating YFM (% Control (or Mortality))” value in series [4] is listed as “A (80-100)”.
On to `CC(=O)/C(C(=O)Nc1ccc(-c2ncn(-c3ccc(OC(F)(F)F)cc3)n2)cc1)=C(/S)Nc1ccccc1C(C)C` [Molecule A20, (E)-3-hydroxy-2-((2-isopropylphenyl)carbamothioyl)-N-(4-(1-(4-(trifluoromethoxy)phenyl)-1H-1,2,4-triazol-3-yl)phenyl)but-2-enamide], for which the mortality at 50 µg/cm2 in series [1] and in series [2] (50 μg/cm2 on artificial diet) was 50 to 100% throughout. The mortality at 200 ppm in series [3] worked out at 0%.
Regarding `Cc1ccccc1N/C(S)=C/C(=O)Nc1ccc(-c2ncn(-c3ccc(OC(F)(F)F)cc3)n2)cc1` [Molecule A22, 3-thioxo-3-(o-tolylamino)-N-(4-(1-(4-(trifluoromethoxy)phenyl)-1H-1,2,4-triazol-3-yl)phenyl)propanamide], the mortality at 50 µg/cm2 in series [1] and in series [2] (50 μg/cm2 on artificial diet) was 50 to 100% in each case. Besides, the mortality at 200 ppm in series [3] was 0%.
With `Cc1cccc(C)c1N/C(S)=C(\C#N)C(=O)Nc1ccc(-c2ncn(-c3ccc(OC(F)(F)F)cc3)n2)cc1` [Molecule A28, (Z)-2-Cyano-3-mercapto-3-((2,6-dimethylphenyl)amino)-N-(4-(1-(4-(trifluoromethoxy)phenyl)-1H-1,2,4-triazol-3-yl)phenyl)acrylamide], the results for the mortality at 50 µg/cm2 in series [1] and in series [2] (50 μg/cm2 on artificial diet) were 0% and 50 to 100%, respectively. In series [4], the “Rating YFM (% Control (or Mortality))” value was “D (No activity noticed in this bioassay)”.
Turning to `Cc1cccc(C)c1N/C(O)=C/C(=O)Nc1ccc(-c2ncn(-c3ccc(OC(F)(F)F)cc3)n2)cc1` [Molecule A32, (Z)-3-(2,6-dimethylphenylamino)-3-hydroxy-I-(4-(1-(4-(trifluoromethoxy)phenyl)-1H-1,2,4-triazol-3-yl)phenyl)acrylamide], the mortality at 50 µg/cm2 in series [1] and in series [2] (50 μg/cm2 on artificial diet) was 50 to 100% throughout. Further, in series [3], the mortality at 200 ppm amounted to 0%.
Consider `COc1ccc(N/C(O)=C/C(=O)Nc2ccc(-c3ncn(-c4ccc(OC(F)(F)F)cc4)n3)cc2)c(C)c1` [Molecule A33, (Z)-3-hydroxy-3-(4-methoxy-2-methylphenylamino)-N-(4-(1-(4-(trifluoromethoxy)phenyl)-1H-1,2,4-triazol-3-yl)phenyl)acrylamide], for which the mortality at 50 µg/cm2 in series [1] and in series [2] (50 μg/cm2 on artificial diet) was 50 to 100% throughout. In addition, in series [3], the mortality at 200 ppm lay within 0 to 80%.
In the case of `Cc1ccccc1N1C(=O)CS/C1=N\C(=O)Nc1ccc(-c2ncn(-c3ccc(OC(F)(F)F)cc3)n2)cc1` [Molecule A65], the mortality at 50 µg/cm2 in series [1] was in the range of 50 to 100%. The mortality at 0.5 µg/cm2 in series [2] lay within 50 to 100%. The “Rating YFM (% Control (or Mortality))” value in series [4] is “A (80-100)”.
In the case of `CCCc1ccccc1N1C(=O)CS/C1=N\C(=O)Nc1ccc(-c2ncn(-c3ccc(OC(F)(F)F)cc3)n2)cc1` [Molecule A69], in series [1], the mortality at 50 µg/cm2 is 50 to 100%. The mortality at 0.5 µg/cm2 in series [2] is 50 to 100%. Besides, the “Rating YFM (% Control (or Mortality))” value in series [4] is given as “A (80-100)”.
Take `Cc1ccc(N2C(=O)CS/C2=N\C(=O)Nc2ccc(-c3ncn(-c4ccc(OC(F)(F)F)cc4)n3)cc2)c(Cl)c1` [Molecule A77]: in series [1], the mortality at 50 µg/cm2 lay within 50 to 100%. In addition, the mortality at 0.5 µg/cm2 in series [2] was in the range of 50 to 100%. Further, the “Rating YFM (% Control (or Mortality))” value in series [4] is recorded as “B (More than 0-Less than 80)”.
Regarding `Cc1ccccc1N/C(S)=N/C(=O)Nc1ccc(-c2ncn(-c3ccc(OC(F)(F)F)cc3)n2)cc1` [Molecule A80], the mortality at 50 µg/cm2 in series [1] and in series [2] (50 μg/cm2 on artificial diet) was 50 to 100% each time. The “Rating YFM (% Control (or Mortality))” value in series [4] is reported as “B (More than 0-Less than 80)”.
Consider `CC(C)c1cccc(Cl)c1N1C(=O)CS/C1=N\C(=O)Nc1ccc(-c2ncn(-c3ccc(OC(F)(F)F)cc3)n2)cc1` [Molecule A85], for which the mortality at 50 µg/cm2 in series [1] fell in the range of 50 to 100%. In addition, the mortality at 0.5 µg/cm2 in series [2] is 50 to 100%. In addition, the “Rating YFM (% Control (or Mortality))” value in series [4] is “A (80-100)”.
With `Cc1cc(-c2ncn(-c3ccc(OC(F)(F)F)cc3)n2)ccc1NC(=O)/N=C(\S)Nc1ccccc1C(C)C` [Molecule A122], in series [1], the mortality at 50 µg/cm2 lay within 50 to 100%. Besides, in series [2], the mortality at 0.5 µg/cm2 was 50 to 100%. Besides, the “Rating YFM (% Control (or Mortality))” value in series [4] is given as “A (80-100)”.
Turning to `Cc1cc(-c2ncn(-c3ccc(OC(F)(F)F)cc3)n2)ccc1NC(=O)/N=C1\SCC(=O)N1c1ccccc1C(C)C` [Molecule A123, (Z)-1-(3-(2-isopropylphenyl)-4-oxothiazolidin-2-ylidene)-3-(2-methyl-4-(1-(4-(trifluoromethoxy)phenyl)-1H-1,2,4-triazol-3-yl)phenyl)urea], the mortality at 50 µg/cm2 in series [1] was 50 to 100%. The mortality at 0.5 µg/cm2 in series [2] fell in the range of 50 to 100%. Moreover, the “Rating YFM (% Control (or Mortality))” value in series [4] is on record as “A (80-100)”.
On to “(E)-((N′-(4-Methoxy-2,6-dimethylphenyl)-N-((4-(1-(4-(trifluoromethyl)phenyl)-1H-1,2,4-triazol-3-yl)phenyl)carbamoyl) carbamimidoyl)thio)methyl 2-(((benzyloxy)carbonyl)amino)acetate [Molecule A9]”, for which the “Rating BAW (% Control (or Mortality))” value in series [1] is reported as “A (50-100)”. Besides, the “Rating CEW (% Control (or Mortality))” value in series [2] (50 μg/cm2 on artificial diet) is “A (50-100)”. For the same compound, the “Rating GPA (% Control (or Mortality))” value in series [3] is “B (More than 0-Less than 80)”.
